Laboratory results published in US6608189B1, “Fluorescent protein sensors for measuring the pH of a biological sample” (University of California, priority 1998, dated 2003).

Tests used:
HeLa cells = assay: pH in cytosol and nucleus of cells expressing EYFP; type: cell-based; conditions: reversible on wash-out
Experimental: HeLa cells and AT-20 cells grown on glass coverslips were transiently lipo-transfected (Lipofectin™, GIBCO) with polynucleotide constructs encoding EYFP.
(§1) Cells were imaged between 2 and 4 days after transfection at 22° C. with a cooled charge-coupled device camera (Photometrices, Tucson, Ariz.) as described in Miyawaki et al., Nature 388:882, (1997). The interference filters (Omega Optical and Chroma Technology, Brattleboro, Vt.) used for excitation and emission were 440 ECFP; 480 535 EGFP or EYFP. The dichroic mirrors were 455 DCLP for ECFP and 505 DCLP for EGFP or EYFP. Regions of interest were selected manually, and pixel intensities were spatially averaged after background subtraction. A binning of 2 was used to improve signal/noise and minimize photodamage and photoisomerization of EYFP. High KCl buffer plus 5 μM each of the ionophores nigericin (Fluka) and monensin (Calbiochem) was used for in situ titrations in living cells. Cells were loaded with cytosolic pH indicators by incubation with 3 μM carboxy-SNARF/AM or BCECF/AM (Molecular Probes) for 45 minutes, then washed for 30 minutes, all at 22° C.
Calibration of fluorescence intensity with pH in situ was accomplished with a mix of the alkali cation/H+ ionophores nigericin and monensin in bath solutions of defined pH and high K+. Fluorescence equilibrated within 1-4 minutes after each exchange of solution.

[1] = biological target: YFP (yellow fluorescent protein; GFP quadruple mutant T203Y/S65G/V68L/S72A, also carrying Q80R) (Aequorea victoria) [GFP: P42212]; assay: X-ray crystal structure of YFP, largest contact area with an adjacent molecule
macrophage phagosomes = conditions: cited from earlier work
[2] = system: Golgi lumen of HeLa cells; assay: pH in the Golgi lumen with GT-EYFP; type: cell-based; conditions: HeLa cells expressing GT-EYFP
Experimental: as §1
The pH of the Golgi lumen was measured by transfecting HeLa or AT-20 cells with the constructs GT-ECFP, GT-EGFP, or GT-EYFP. Bright juxtanuclear fluorescence was observed, with little increase in diffuse staining above autofluorescnce in most cells.
The pH gradient across the Golgi membrane is maintained by the electrogenic ATP-dependent H^+ pump (V-ATPase). The V-ATPase generates a ΔpH (acidic inside) and Δψ(positive inside), which opposes further H^+ transport. The movement of counter-ions, Cl^− in (or K^+ out), with H^+ uptake would shunt the Δψ, allowing a larger ΔpH to be generated. These mechanisms were investigated in intact single HeLa cells transfected with GT-EYFP.

[3] = system: Golgi lumen of HeLa cells; assay: ratiometric Golgi pH with GT-EYFP and GT-ECFP; type: cell-based; conditions: cotransfected HeLa cells
Excerpt: Quantitative measurements of fluorescence with nonratiometric indicators can suffer from artifacts as a result of cell movement or focusing. To correct for these effects, the cyan-emitting mutant GT-ECFP was co-transfected into cells along with GT-EYFP. ECFP has excitation and emission peaks that can be separated from those of EYFP by appropriate filters. In addition, ECFP is less pH-sensitive than EYFP (see FIG. 2B).
Although the ratio of EYFP to ECFP emission varied between cells, probably reflecting a different concentration of GT-EYFP and GT-ECFP in the Golgi lumen, it changed with pH as expected (FIG. 3B). Bafilomcin A1 raised the GT-EYFP/GT-ECFP emission ratio, i.e, it raised pHG.

[4] = system: mitochondrial matrix of HeLa cells; assay: mitochondrial matrix pH with mito-YFP H148Q in HeLa cells; type: cell-based; conditions: 10 uM in high KCl titration buffer
Experimental: The YFP H148Q mutant has a pKa of about 7.4, which is intermediate between the pKa of EYFP and YFP mutant H148G. […] Fluorescence was measured over time (beginning at t≈0), including following the addition of 10 μM nigericin in high KCL titration buffer at t≈500 seconds.
Fluorescence decreased to about 175 units at t=1000 seconds by addition of nigericin, which lowered the pH to about 6.9. Fluorescence then returned stepwise to 400 units with each change of the extracellular medium.

[5] = system: mitochondrial matrix of HeLa cells; assay: mitochondrial matrix pH with mito-YFP H148G in HeLa cells; type: cell-based; conditions: 5 uM
Experimental: YFP H148G expression was monitored by observing fluorescence over time. Mitochondrial pH was also monitored by pH titration as described in Example 3 using nigericin and monensin.
5 μM CCCp was added at about t≈300 seconds. […] Then a calibration was performed by perfusing the cells with extracellular medium of pH 7, 7.5, 8, and 8.35 containing the ionophores nigericin plus monensin to equilibrate mitochondrial pH and extracellular pH. Fluorescence in mitochondria increased stepwise with each change of extracellular pH.

[6] = system: mitochondria of HeLa cells; assay: GFP T203I as pH-insensitive reference in mitochondria of HeLa cells; type: cell-based; conditions: control experiments
Experimental: To identify a GFP sensor protein suitable for use as a reference protein for measuring mitochondrial matrix pH, the GFP mutant T203I was expressed in the mitochondria of HeLa cells.
Fluorescence of HeLa cells transfected with the GFP T203I mutant was monitored for about 400 seconds using an excitation ratio of 480 nm/400 nm. 10 μM CCCP was then added to the cells, and fluorescence was monitored for an additional 250 seconds. […] In control experiments, it was observed that addition of CCCP corresponded to a drop in pH of about 1 unit. Thus, the GFP T203I mutant is suitable for use as a reference, pH-insensitive mutant.

[7] = system: mitochondrial matrix of chick skeletal myotubes; assay: mitochondrial matrix pH with mito-YFP H148G in chick skeletal myotubes; type: cell-based; conditions: 2 uM, t about 1400 seconds
Excerpt: Fluorescence was also examined, and pH measured, in primary cultures of chick skeletal myotubes transfected with the mito-YFP H148G mutant. […] Thereafter fluorescence continued to be observed during calibration at ph 6.9, 7.6 and 8.0.

[8] = system: mitochondrial matrix of HeLa cells; assay: pH in the mitochondrial matrix with EYFP-mito; type: cell-based; conditions: HeLa cells expressing EYFP-mito
Experimental: To measure pH in the mitochondrial matrix using mutant GFP sensor proteins, HeLa cells and neonatal rat cardiomyocytes were transfected with the fluorescent protein pH sensor EYFP-mito. A Bio-Rad MRC-1000 confocal microscope was used for analysis of the targeted protein. […] In situ pH titration was performed with nigericin/monensin as described in Example 3.

With `Cl.N` [NH4Cl] the “change of EYFP fluorescence (pH) on perfusion” value (HeLa cells) was “increase in fluorescence”.

With `CC(O)C(=O)O` (stereo not shown) [lactate] the “change of EYFP fluorescence (pH) on perfusion” value (HeLa cells) was “decrease in fluorescence”.

In the case of “YFP (yellow fluorescent protein; GFP quadruple mutant T203Y/S65G/V68L/S72A, also carrying Q80R) (from UniProt P42212 1-238)”, the contact area on one monomer surface [1] is reported as 722 Å2.

For `CO/C1=C\C(C)=C\[C@@H](C)[C@@H](O)[C@@H](C)C/C(C)=C/C=C/[C@H](OC)[C@@H]([C@@H](C)[C@@H](O)[C@H](C)[C@@]2(O)C[C@@H](O)[C@H](C)[C@@H](C(C)C)O2)OC1=O` [bafilomycin A1], the “rate of alkalinization reported for other acidic compartments” value (macrophage phagosomes) is listed as 0.09 pH/min, the “increase of pHG” value ([2]; 0.2 uM) is listed as “about 0.6 units” and the pHG after treatment ([2]; 0.2 uM, n=12 cells) is listed as 7.16. The “initial rate of Golgi alkalinization” value ([2]; n=12 cells) was 0.52 pH units per minute and the “GT-EYFP/GT-ECFP emission ratio (pHG)” value [3] was “raised”.

For `CO[C@@H]1C[C@@H](C[C@H]2CC[C@H](C)[C@H]([C@@H](C)C(=O)O)O2)O[C@]2(O[C@](C)([C@H]3CC[C@@](C)([C@@H]4O[C@@H]([C@H]5O[C@@](O)(CO)[C@H](C)C[C@@H]5C)C[C@@H]4C)O3)C[C@H]2C)[C@@H]1C` [nigericin], the “mitochondrial pH after addition” value [4] was “about 6.9”.

In the case of `N#CC(C#N)=NNc1cccc(Cl)c1` [CCCP, carbonylcyanide m-chlorophenylhydrazone], the “mitochondrial pH after addition” value [5] is reported as 7.0, the “drop in pH on addition” value [6] is reported as “about 1 unit” and the “mitochondrial pH after addition” value [7] is reported as 6.9. For the same molecule, the “mitochondrial pH after acidification by the protonophore” value [8] was about 7.
